Source: patent publication US11963962B2, “Platelet count-agnostic methods of treating myelofibrosis” (Sierra Oncology, Inc., priority 2018, dated 2024)
Like-named read-outs stand apart in the source and are kept apart here. Marks after values point to notes of the source that are not given here.

Assays:
myelofibrosis [1] = assay: SIMPLIFY-1 Phase 3 trial: total symptom score (TSS) response at week 24; type: in vivo, human; details: for TSS response rate: SIMPLIFY 1, week 24
Description: (§1) In the SIMPLIFY-1 trial (NCT01969838), the efficacy and safety of MMB versus ruxolitinib (RUX) was studied in patients with myelofibrosis who were naïve to treatment with a JAK inhibitor and a platelet count of ≥50×10^9/L. Patients (N=432) with high risk or intermediate-2 risk or symptomatic intermediate-1 risk myelofibrosis received 24 weeks of treatment with 200 mg MMB once daily or 20 mg RUX twice a day (or per label), after which all patients could receive open-label momelotinib. […] The primary endpoint was a reduction by at least 35% in the spleen volume at 24 weeks compared with baseline.
(§2) FIG. 8A: SIMPLIFY-1 study of MMB in a first line population previously untreated with JAKi. For SIMPLIFY-1, the goal was non-inferiority over ruxolitinib (RUX) (MMB: N=215 subjects, and RUX: N=217 subjects). FIG. 8B: SIMPLIFY-2 study of second line population of anemic or thrombocytopenic subjects previously treated with RUX (red blood cell (RBC) transfusions on RUX=64%. RUX dose adjustment for: thrombocytopenia=21%; anemia/hematoma=35%). For SIMPLIFY-2, the goal was superiority over best available treatment (BAT) (MMB: N=104 subjects, and BAT: N=52 subjects). In both SIMPLIFY-1 and SIMPLIFY: Primary endpoint: >=35% reduction in spleen volume at 24 weeks. Secondary endpoints: Total symptom score (TSS) response at 24 weeks. Effects on RBC transfusion requirements.
(§3) The SIMPLIFY 1 clinical trial data was reanalyzed for subgroups of subjects having particular baseline platelet counts in the MMB versus RUX arms of the study.
(§4) Patient data was analyzed according to the following baseline platelet count (PLT) subgroups and in particular according to the threshold PLT of 150×10^9/L: 1) PLT<50×10^9/L; 2) 50×10^9/L≤PLT<100×10^9/L; 3) 100×10^9/L≤PLT<150×10^9/L. The reanalyzed data is presented in Table 13 (SIMPLIFY 1). Selected data is also illustrated in the following figures.

myelofibrosis [2] = assay: SIMPLIFY-1 Phase 3 trial: splenic response rate (SRR); type: in vivo, human; details: SIMPLIFY 1, week 24
Description: as §1, §2, §3, §4

myelofibrosis [3] = assay: SIMPLIFY-1 Phase 3 trial: transfusion independence and TD to TI conversion; type: in vivo, human; details: SIMPLIFY 1
Description: The improved outcome from MMB therapy that results from practicing the subject methods can be manifested as an improvement in one or more clinical endpoints (e.g., as described herein), such as anemia response, in spleen response and/or symptom response. By “anemia response” is meant an increase in the patient's hemoglobin level or a patient who was transfusion dependent becoming transfusion independent. Desirably, a minimum increase in hemoglobin of 0.5 g/dL, such as 1.0 g/dL 1.5 g/dL or 2.0 g/dL lasting a minimum of 8 weeks is achieved, which is the level of improvement specified in the International Working Group (IWG) consensus criteria. However, smaller, but still medically significant, increases in hemoglobin are also considered to be within the term “anemia response”. “Transfusion independence” is an anemia endpoint and refers to a subject who required no RBC transfusions over a 12 week period and had no hemoglobin levels less than 8 g/dL to 8.5 g/dL over the 12 week period. In some embodiments, the 12 week period of transfusion independence is the terminal 12 weeks of a 24 week study period. By red blood cell (RBC) transfusion independence rate at week 24 of a study is meant the proportion of subjects who were transfusion independent at week 24, excluding cases associated with clinically overt bleeding.
as §1, §2, §3, §4

myelofibrosis [4] = assay: SIMPLIFY-1 Phase 3 trial: safety (anemia, platelet counts, hemoglobin); type: in vivo, human
Description: as §1
The mean platelet count for RUX patients is demonstrably lower than the mean platelet count for MMB patients.
The MMB subjects were thus at lower risk of developing thrombocytopenia (e.g., Grade 3 or 4 thrombocytopenia), or of having to undergo undesirable dose reduction because they were able to largely maintain their platelet counts during therapy.

myelofibrosis [5] = assay: SIMPLIFY-1 dynamic and time-to-event analyses of RBC transfusions; type: in vivo, human; details: SIMPLIFY-1, 24 week randomized treatment period
Description: The SIMPLIFY-1 (S1) trial, a double-blind, active-controlled Phase 3 study in which 432 patients received randomized treatment with MMB or RUX for 24 weeks was previously reported (Mesa R A, Kiladjian J J, Catalano J V. et al. “Simplify-1: A phase III randomized trial of momelotinib versus ruxolitinib in j anus kinase inhibitor—naïve patients with myelofibrosis”, Journal of Clinical Oncology, 2017; 35:3844-50).
Since transfusion burden is of significant concern to clinicians and patients, to better understand the dynamics of RBC transfusions we further examined the S1 data through statistical models utilizing a variety of novel anemia benefit endpoints including time until transfusion and overall intensity of transfusions across time. The proportions of patients with 0 and 4 transfusions were calculated and time-to-event analyses examining time-to-first and time-to-fifth units transfused also conducted. Since transfusions typically comprise 2 units, the fifth unit transfused represents a de facto third transfusion event. The number of units transfused were also considered to be recurrent events and examined with and without patients' baseline characteristics as covariates. Finally, a mixture model, based on a zero-inflated negative binomial (ZINB) distribution fit to the transfusion data, was employed to compare between the treatment groups the proportions of subjects with zero transfusion burden and the mean transfusion rates.

myelofibrosis [6] = details: cited from earlier work
[7] = ITT, platelets 50-100 (subgroup 2)
[8] = ITT, platelets 100-150 (subgroup 3)
[9] = baseline TSS ≥ 6, platelets 50-100 (subgroup 2)
[10] = baseline TSS ≥ 6, platelets 100-150 (subgroup 3)
[11] = baseline TSS ≥ 10, all patients
[12] = baseline TSS ≥ 10, platelets 50-100 (subgroup 2)
[13] = baseline TSS ≥ 10, platelets 100-150 (subgroup 3)

For `N#CC[C@H](C1CCCC1)n1cc(-c2ncnc3[nH]ccc23)cn1` [RUX, ruxolitinib, reference compound], the TSS response rate (myelofibrosis [1]; ITT, all patients) was 41%, the TSS response rate (myelofibrosis [1]; [7]) was 22% and the TSS response rate (myelofibrosis [1]; [8]) was 39%*. The TSS response rate (myelofibrosis [1]; baseline TSS ≥ 6, all patients) was 42%, the TSS response rate (myelofibrosis [1]; [9]) was 23% and the TSS response rate (myelofibrosis [1]; [10]) was 33%. The TSS response rate (myelofibrosis [1]; [11]) was 43%, the TSS response rate (myelofibrosis [1]; [12]) was 21% and the TSS response rate (myelofibrosis [1]; [13]) was 35%. The “Total Symptom Score (TSS) response” value (myelofibrosis [1]; SIMPLIFY-1, overall) was 42.2%, the SRR (myelofibrosis [2]; ITT, all patients) was 29% and the SRR (myelofibrosis [2]; [7]) was 0%. It also gave an SRR (myelofibrosis [2]; [8]) of 6%, an SRR (myelofibrosis [2]; baseline TSS ≥ 6, all patients) of 29% and an SRR (myelofibrosis [2]; [9]) of 0%. For the same compound, the SRR (myelofibrosis [2]; [10]) was 7%, the SRR (myelofibrosis [2]; [11]) was 29% and the SRR (myelofibrosis [2]; [12]) was 0%. The SRR (myelofibrosis [2]; [13]) was 5%, the “patients with transfusion independence promoted and maintained (TI rate)” value (myelofibrosis [3]) was 49% and the “Week 24 TI rate” value (myelofibrosis [3]; ITT, all patients) was 49%. The “Week 24 TI rate” value (myelofibrosis [3]; [7]) was 39%, the “Week 24 TI rate” value (myelofibrosis [3]; [8]) was 45%* and the “Week 24 TI rate” value (myelofibrosis [3]; baseline TSS ≥ 6, all patients) was 48%. The “Week 24 TI rate” value (myelofibrosis [3]; [9]) was 36%, the “Week 24 TI rate” value (myelofibrosis [3]; [10]) was 41% and the “Week 24 TI rate” value (myelofibrosis [3]; [11]) was 51%. The “Week 24 TI rate” value (myelofibrosis [3]; [12]) was 32%, the “Week 24 TI rate” value (myelofibrosis [3]; [13]) was 45%* and the anemia rate (myelofibrosis [4]; SIMPLIFY 1) was 38%. For the same compound, the “≥Grade 3 anemia rate” value (myelofibrosis [4]; SIMPLIFY 1) was 23%, the “platelet counts during treatment” value (myelofibrosis [4]; SIMPLIFY 1, 24 week double blind phase, FIGS. 31-33) was “significant reductions in platelet counts from baseline” and the “Kaplan-Meier estimate of the proportion of patients who did not require any units transfused” value (myelofibrosis [5]) was 46%. The “proportion of patients requiring 4 or fewer units” value (myelofibrosis [5]) was 62%, the “median time to recovery of platelet counts above 50×10^9/L” value (myelofibrosis [6]; after dose reduction or dose interruption) was 14 days and the “median time to onset of thrombocytopenia” value (myelofibrosis [6]; patients who developed Grade 3 or 4 thrombocytopenia) was “approximately 8 weeks”. For the same compound, the “frequency of Grade 3 or 4 thrombocytopenia” value (myelofibrosis [6]; patients with a platelet count of 100×10^9 to 200×10^9/L before starting ruxolitinib) was 17% and the “frequency of Grade 3 or 4 thrombocytopenia” value (myelofibrosis [6]; patients with an entry platelet count greater than 200×10^9/L) was 7%.
